Results published in patent publication US10376481B2, “Compounds and methods for inhibiting NHE-mediated antiport in the treatment of disorders associated with fluid retention or salt overload and gastrointestinal tract disorders” (ARDELYX, INC, priority 2012, dated 2019).

Legend:
[1] = test system: apical acid secretion, human ileum monolayer culture; assay: Sustained inhibition of apical acid secretion in human organoid monolayer cell cultures (ileum); format: cell-based; conditions: 1 μM apical dosing day 6, apical media pH day 8, inhibition of apical acid secretion vs DMSO
Method: (§1) Basal media (BM) consisted of advanced DMEM/F12 containing 10 mM HEPES (Invitrogen, 15630-080), 1:100 Glutamax (Invitrogen, 35050-061), and 1:100 penicillin/streptomycin (Invitrogen, 15140-122). […] Growth factors used included 50 ng per mL mouse EGF (Peprotech, 315-09), 100 ng per mL mouse noggin (Peprotech, 250-38), 500 ng per mL human R-spondin 1 (R&D, 4645-RS), 100 ng per mL mouse Wnt-3a (R&D, 1324-WN), 20 μM Y-27632 (Tocris, 1254), 10 mM nicotinamide (Sigma, N0636), 500 nM A83-01 (Tocris, 2939), 10 μM SB202190 (Tocris, 1264). Transwells were 0.4 μm pore polyester membrane 24-well Transwell inserts (Corning). Cultures were incubated at 37° C. in 5% CO2.
Human ileum organoids were cultured in WENRNAS (Wnt, EGF, noggin, R-spondin1, Nicotinamide, A83-01, SB202190) and typically grown for 7-12 days before being used to plate monolayer cultures. On day 0, organoid cultures embedded in Matrigel were treated with TrypLE Express to break organoids into small pieces and/or single cells. […]
Each human ileum monolayer culture well was washed twice with fresh SBM on the apical side on day 6 before compound dosing. […] On day 8, apical media pH was measured by pH meter, to determine the ability of example compounds to produce sustained inhibition of NHE3 activity in a human monolayer culture system by preventing proton secretion into the apical compartment.

[2] = test system: tight junction permeability, human duodenum monolayer culture; assay: Increased trans-epithelial resistance (TEER) in human organoid monolayer cell cultures; format: cell-based; conditions: 1 μM apical, baseline corrected
Method: as §1
Human duodenum organoids were cultured in WENRNAS (Wnt, EGF, noggin, R-spondin1, Nicotinamide, A83-01, SB202190) and typically grown for 7-12 days before being used to plate monolayer cultures. […]
Each human duodenum monolayer culture well was washed twice with fresh SBM on the apical side on day 6 or day 7 before dosing. […] Transepithelial electrical resistance (TEER) was used as a quantitative technique to measure of tight junction permeability. TEER values were recorded (MERS00002, Millipore) before dosing and 30 mins and 1 hr after dosing for all wells. […] Baseline corrected TEER for each example compound was compared to the average of the DMSO wells and expressed as a percent TEER of vehicle control.

[3] = Plasma PK; format: in vivo, Sprague-Dawley rats; conditions: Sprague-Dawley, rat plasma, oral gavage, nominal dose 15 mg/kg, mean of n=3
Method: Sprague-Dawley rats (n=3) were dosed with test compound by oral gavage. Blood samples were collected at 0.5, 1, 2 and 4 h by retro-orbital bleeds and processed to plasma using K2EDTA as an anticoagulant. Plasma samples were treated with acetonitrile containing an internal standard and precipitated proteins were removed by centrifugation. Supernatants were analyzed by LC-MS/MS and compound concentrations were determined by interpolation from a standard calibration curve prepared in plasma. Accurate recovery of quality control samples was confirmed to accept each analytical run. Table 5 illustrates data from the pharmacokinetic profiling of an example compound, for which pharmacokinetic parameters were determined.

With CN(C)[C@H]1Cc2c(Cl)cc(Cl)cc2[C@@H]1Oc1ccc(S(=O)(=O)NCCOCCOCCNC(=O)NCCCCNC(=O)NCCOCCOCCNS(=O)(=O)c2ccc(O[C@H]3c4cc(Cl)cc(Cl)c4C[C@@H]3N(C)C)cc2)cc1 [Example 1, (S,S)—N,N′-(10,17-dioxo-3,6,21,24-tetraoxa-9,11,16,18-tetraazahexacosane-1,26-diyl)bis(4-((1S,2S)-4,6-dichloro-2-(dimethylamino)-2,3-dihydro-1H-inden-1-yloxy)benzenesulfonamide)] the “% inhibition (ileum)” value [1] was “B (50-70%)”, the “TEER at 30 minutes (% of Vehicle)” value ([2]; 30 mins after dosing) was “B (100-130%)” and the “TEER at 60 minutes (% of Vehicle)” value ([2]; 1 hr after dosing) was “B (100-130%)”. For the same compound, the Cmax ([3]; LLOQ 0.2 ng/mL) was 1 ng/mL and the AUC ([3]; samples 0.5-4 h) was less than 3 ng·h/mL.
